Source: patent publication US20120083471A1, “Novel Compounds, Pharmaceutical Compositions Containing Same, Methods of Use for Same, and Methods for Preparing Same” (priority 2008, published 2012)
Entries after “also recorded” stand apart in the source; their conditions may differ.

Tests used:
mtGPAT1 = target: T1, mtGPAT1 (Mus musculus, UniProt Q61586); assay: In vitro mtGPAT inhibition: acylation of 14C-glycerol 3-phosphate with palmitoyl-CoA, scintillation counting; assay type: biochemical; conditions: Table 2, sulfonamides 15a-i and 17a-f; triplicate; read-out: IC50 (μM) ± SD, In Vitro Anti-mtGPAT1 Activity
T1 construct: from tissue; host or cells: mitochondrial preparation
T1 sequence (Q61586 1-827): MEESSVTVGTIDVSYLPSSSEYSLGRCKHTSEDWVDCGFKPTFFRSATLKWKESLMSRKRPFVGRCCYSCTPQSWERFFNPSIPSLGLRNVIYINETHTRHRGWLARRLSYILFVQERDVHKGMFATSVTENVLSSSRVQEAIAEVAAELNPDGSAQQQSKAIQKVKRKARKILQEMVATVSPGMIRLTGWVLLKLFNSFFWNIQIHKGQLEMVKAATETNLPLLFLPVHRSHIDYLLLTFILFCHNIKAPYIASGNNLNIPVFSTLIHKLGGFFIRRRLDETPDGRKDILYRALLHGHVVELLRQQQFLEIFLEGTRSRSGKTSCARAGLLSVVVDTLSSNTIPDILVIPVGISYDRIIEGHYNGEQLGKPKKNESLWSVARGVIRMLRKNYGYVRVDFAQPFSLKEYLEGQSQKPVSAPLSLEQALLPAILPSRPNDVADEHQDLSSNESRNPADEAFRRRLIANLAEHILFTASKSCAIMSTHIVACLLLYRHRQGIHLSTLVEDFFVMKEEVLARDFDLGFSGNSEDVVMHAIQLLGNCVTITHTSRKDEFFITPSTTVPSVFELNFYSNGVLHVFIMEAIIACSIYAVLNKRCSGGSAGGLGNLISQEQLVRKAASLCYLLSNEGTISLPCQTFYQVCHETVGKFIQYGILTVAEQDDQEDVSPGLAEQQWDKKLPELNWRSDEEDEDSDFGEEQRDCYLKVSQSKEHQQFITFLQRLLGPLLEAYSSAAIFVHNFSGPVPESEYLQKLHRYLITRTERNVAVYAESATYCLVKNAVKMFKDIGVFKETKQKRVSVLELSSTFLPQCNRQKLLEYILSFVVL
Experimental: The compounds produced as described above were evaluated for their ability to inhibit the acylation of glycerol-3-phosphate in vitro. The acylation reaction between ^14C-labelled glycerol-3-phosphate and palmitoyl-CoA, initiated by adding mtGPAT, was measured in the presence of varying concentrations of the inhibitor by scintillation counting as described in more detail below.
A mitochondrial preparation of glycerol 3-phosphate acyltransferase was added to the incubation mixture containing ^14C-labeled glycerol 3-phosphate, palmitoyl-CoA, and varying inhibitor concentrations to initiate the reaction. After ten min, the reaction was terminated by adding chloroform, methanol, and 1% perchloric acid. Five minutes later, more chloroform and perchloric acid were added, and the upper aqueous layer was removed. After washing three times with 1% perchloric acid, the organic layer was evaporated under nitrogen, and the amount of ^14C present was counted to determine the extent of reaction inhibition. Data points were recorded in triplicate, and IC50 values were calculated based on the amount of test inhibitor necessary to produce 50% of mtGPAT activity observed in the absence of inhibitor but in the presence of DMSO vehicle control.

lean mice = assay: Conditioned taste aversion, two-bottle choice; assay type: in vivo, mouse; conditions: 5 mg/kg or 20 mg/kg ip, listed as FSG67
Experimental: Conditioned taste aversion. Ten days before testing, eighteen male C57/BL6 mice were placed on a schedule of 2 h daytime access to water. On the test day, mice were divided into three groups and were given access to 0.15% sodium saccharin rather than water for 30 min. Immediately after saccharin access, mice were injected ip with RPMI vehicle or FSG67 (5 and 20 mg/kg body wt) and were allowed water access for the remaining 90 min. Twenty-four hours later, mice were given 2h access to a two-bottle choice test of 0.15% saccharin vs. water. Intakes of both solutions were recorded, and data were expressed as saccharin preference (100× saccharin intake/saccharin intake+water intake).
GPAT inhibition with FSG67 decreased body weight in DIO mice consuming a high fat diet. FSG67 treated DIO mice lost 4.3±0.5% (1.7±0.2 g) of body mass versus a 5.3±0.4% (2.1±0.2 g) loss for fasted mice (FIG. 11c). Compared to the vehicle control mice which lost 2.5±0.6% (1.0±0.2 g) the weight loss was significant in both the FSG67 treated (p=0.026, 2-tailed t-test) and fasted mice (p=0.002, 2-tailed t-test). […] Thus, the reduction in food intake from FSG67 was not due to sickness behavior (FIG. 11e).

[1] = system: hypothalamic neuropeptide expression; assay: Real-time RT-PCR of hypothalamic neuropeptides in lean mice after single dose; assay type: in vivo, mouse; conditions: single 20 mg/kg
Experimental: For acute studies, 6 DIO or lean mice were treated with a single dose of FSG67 (20 mg/kg, i.p.) approximately 3 hrs past lights-on. Animal weights and food consumption were measured 18 h after treatment. Following euthanization, the hypothalmuses were harvested to measure orexigenic and anorexigenic neuropeptide gene expression. In the chronic studies, DIO mice, 4-10 animals per group, were treated daily with FSG67 (5 mg/kg, i.p.) or with RMPI vehicle for the days indicated. Body weight and food intake were measured daily. In one study, a cohort of mice was pair-fed with amounts consumed by the FSG67-treated animals and mice were monitored with indirect calorimetry (Oxymax Equal Flow System®, Columbus Instruments, Columbus, Ohio). Measurements of VO2 (ml/kg/hr) and VCO2 (ml/kg/hr) were performed and recorded every 15 min. The respiratory exchange ratio (RER) was calculated by Oxymax software, version 5.9, and is defined as ratio of VCO2 to VO2 33. After completion of the treatment course, animals were euthanized by CO2 inhalation 4 hrs following the final dose of FSG67. Tissues were harvested immediately for RNA extraction; serum was collected and analyzed for glucose, cholesterol, and triglyceride measurements (Bioanalytics, Gaithersburg, Md.). Fresh liver tissue was snap frozen in liquid N2, sectioned, and stained with hematoxylin and Oil Red O to visualize triglyceride droplets.
Real-time RT-PCR. Hypothalamus, liver, and WAT of DIO and lean mice were harvested and immediately frozen in liquid nitrogen. Total RNA was isolated and real-time quantitative RT-PCR was performed as previously described (13). Gene-specific primer pairs were designed using Primer3 software (http://www-genome.wi.mit.edu/cgi-bin/primer/primer3_www.cgi/). […]
Acute and chronic FSG67 treatment altered hypothalamic neuropeptide expression. Hypothalamic peptide expression was measured in the lean and DIO mice treated with a single dose of FSG67 (see FIG. 11) and in the chronically treated DIO mice (see FIG. 12) to further asses the mechanism responsible for reduced food intake. […]

## CCCCCCCCCS(=O)(=O)Nc1ccccc1C(=O)O [Compound 15g, 2-(Nonylsulfonamido)benzoic acid]
mtGPAT1
  IC50: 8.1 µM
Lean mice
  conditioned taste aversion (saccharin intake): failed to produce a significant reduction in saccharin intake; also recorded: did not induce conditioned tasted aversion
[1]; compared to fasted mice
  hypothalamic NPY expression: significantly reduced
[1]; compared to vehicle control and fasted mice, listed as FSG67, 20 mg/kg
  hypothalamic AGRP expression: substantially diminished
[1]; listed as FSG67, 20 mg/kg
  hypothalamic POMC and CART expression: not affected; also recorded: unaffected
